{"source": "patent US20040024543A1", "about": "“Methods and systems for analyzing complex biological systems” (priority 2001, published 2004)", "system": "Saccharomyces cerevisiae wild type strain BY4743", "assay": "AF1 yeast metabolite analysis by GC-MS and LC-MS after antifungal drug treatment; note: test concentration or dose not given here", "assay_type": "cell-based", "details": "pLC"}
{"molecule": "OC(Cn1cncn1)(Cn1cncn1)c1ccc(F)cc1F", "note": "[Fiuconazole]", "values": [{"measurement": "Fold Change", "setting": "5hydroxyLtryptophan", "result": 0}, {"measurement": "Fold Change", "setting": "adenosine", "result": 0}]}
